Test results reported in patent publication US4544665A, “1-Aryl-3-azabicyclo[3.2.0]heptanes” (American Cyanamid Company, priority 1983, dated 1985).

Tests used:
human platelet membranes = biological target: T1, human platelet membranes (Homo sapiens, UniProt P31645); assay: Platelet imipramine binding ([3H]-imipramine); set-up: key to Platelet Imipramine Binding, Result: Active: A compound is considered active if greater than about 50% inhibition is achieved at a concentration of about 10 μM; conditions: 10 μM test compound, 60 min at 0° C.; for inhibition at 10 µM: [3H]imipramine
T1 construct: from tissue; host or cells: human platelets (membranes of sonicated platelet concentrates)
Experimental: The activity of the compounds of this invention as anti-depressant agents was also shown in the following test which measures the ability of a test compound to inhibit [^3 H]-imipramine binding to human platelet membranes. Human platelet concentrates were diluted about 1:20 with antiprotease containing buffer of the following composition:
Approximately 0.12M: sodium chloride
Approximately 0.05M: tris buffer
Approximately 0.005N: potassium chloride
Approximately 0.025: μg/ml aprotinin
Approximately 0.5: μg/ml pepstatin
Approximately 2×10^-5 N: bacitracin
Approximately 3 mN: ethylenediaminetetraacetic acid
Approximately 1 mN: ethyleneglycol-bis-(β-aminoethyl ether)-N,N'-tetracetic acid
Such buffer was kept at about pH 6.8 to prevent platelet release and aggregation. The diluted platelets were centrifuged at about 2,500 g and then resuspended in about 50 volumes of the same buffer. The cells were then ruptured with a Branson sonicator while the suspension was maintained in an ice bath. The ruptured cells were then centrifuged at about 18,000 g, resuspended in fresh buffer and recentrifuged at about 18,000 g. The resulting membranes were then diluted with the above antiprotease buffer, which had been adjusted to about pH 7.4, and to a protein concentration of about 3.0 mg/ml.
The test compounds were dissolved in dimethylsulfoxide at a concentration of about 50 mM and then diluted about 1:10 in either water, about 0.1M hydrochloric acid or about 0.1M sodium hydroxide. They were then diluted about 1:100 in buffer to about 50 μM, and about 50 μl of this stock solution was placed in triplicate test tubes. The tubes were cooled to about 0° C. and about 200 μl of the following mixture were added:
About 100 μl of 3 mg/ml membrane in buffer
About 50 μl of 15 nM[^3 H]imipramine in buffer
The tubes were incubated for about 60 minutes at about 0° C. Controls contain either buffer alone (100%) or about 10 μM final of desmethylimipramine (DMI). The samples were diluted with about 5 ml of buffer [0.12M-sodium chloride, 0.05M-tris buffer, 0.005M-potassium chloride (pH 7.4)], vacuum filtered and washed twice with about 5 ml of buffer. Radioactivity was measured in a liquid scintillation counter and the degree of binding was calculated.

mice [1] = assay: Tetrabenazine-induced depression (exploratory behavior); assay type: in vivo; set-up: key to Tetrabenazine-Induced Depression, Result: Active: A compound is considered active if 3 or more of the 10 mice are protected against the tetrabenazine-induced effects; conditions: about 25 mg/kg i.p., 30 min before tetrabenazine methanesulfonate about 39 mg/kg i.p.; for Tetrabenazine-Induced Depression, mice protected of 10: protected/tested; for Tetrabenazine-Induced Depression, Result: tested 30 min later
Experimental: The compounds of this invention are useful as anti-depressant agents in warm-blooded animals. The anti-depressant properties of these compounds were tested by measuring their ability to counteract depression induced in such animals by the administration of tetrabenazine methanesulfonate. Each test compound was administered intraperitoneally to 10 mice at a dose of about 25 mg/kg of body weight. Approximately thirty minutes later, tetrabenazine methanesulfonate was administered intraperitoneally to each mouse at a dose of about 39 mg/kg of body weight, which dose is known to depress markedly the exploratory behavior of normal mice. Approximately thirty minutes later, the mice were tested for their exploratory behavior as described by E. Greenblatt and A. C. Osterberg, Toxicology and Applied Pharmacology, 7: 556-578 (1965). A compound is considered active if 3 or more of the 10 mice are protected against the tetrabenazine-induced effects.

mice [2] = assay: Tetrabenazine-induced ptosis; assay type: in vivo; set-up: key to Tetrabenazine-Induced Ptosis, Result: Active: A compound is considered active if 5 or more of 10 mice respond; conditions: about 25 mg/kg i.p.; for Tetrabenazine-Induced Ptosis, Result: 30 min before tetrabenazine methanesulfonate about 39 mg/kg i.p., examined 30 min later; for Tetrabenazine-Induced Ptosis, mice responding of 10: responders (about 75% or greater opening of palpebral aperture)/tested
Experimental: Inhibition of tetrabenazine-induced ptosis is observed concomitantly with the inhibition of tetrabenazine-induced depression. Ptosis is defined as more than about 75% closure of palpebral aperture induced in animals by the administration of tetrabenazine methanesulfonate. The compounds were administered intraperitoneally at a dosage of about 25 mg per kilogram of body weight to groups of 10 mice. About thirty minutes later, tetrabenazine methanesulfonate was administered intraperitoneally to each mouse at a dose of about 39 mg/kg. About thirty minutes after the injection of tetrabenazine, the mice were placed on an observation disc and examined for approximately 10 seconds for inhibition of ptosis. […] A compound is considered active if 5 or more of 10 mice respond.

T1 sequence (P31645 whole entry): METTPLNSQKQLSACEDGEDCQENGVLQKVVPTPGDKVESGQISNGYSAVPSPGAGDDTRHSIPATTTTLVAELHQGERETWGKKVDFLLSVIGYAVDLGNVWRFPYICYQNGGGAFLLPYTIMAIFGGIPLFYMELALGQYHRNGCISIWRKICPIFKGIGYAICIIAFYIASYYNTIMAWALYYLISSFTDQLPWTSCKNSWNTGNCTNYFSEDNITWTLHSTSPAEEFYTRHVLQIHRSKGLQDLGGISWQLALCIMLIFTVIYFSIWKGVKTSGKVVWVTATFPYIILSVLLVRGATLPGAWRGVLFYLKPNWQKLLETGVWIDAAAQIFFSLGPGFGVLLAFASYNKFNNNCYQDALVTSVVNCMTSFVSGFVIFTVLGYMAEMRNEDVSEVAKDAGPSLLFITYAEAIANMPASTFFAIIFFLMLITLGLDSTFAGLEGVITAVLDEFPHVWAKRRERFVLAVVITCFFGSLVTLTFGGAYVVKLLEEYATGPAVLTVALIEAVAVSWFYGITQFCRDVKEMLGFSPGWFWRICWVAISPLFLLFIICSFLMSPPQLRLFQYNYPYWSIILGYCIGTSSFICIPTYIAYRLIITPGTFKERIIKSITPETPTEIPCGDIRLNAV

## CCO[C@@H]1C[C@@H]2CN(C)C[C@@]21c1cccc(OC)c1 (relative stereo) [7α-Ethoxy-1β-(m-methoxyphenyl)-3-methyl-3-azabicyclo[3.2.0]heptane]
Human platelet membranes
  Platelet Imipramine Binding, Result: Active
  inhibition at 10 µM: 92%

## CCO[C@H]1C[C@@H]2CN(C)C[C@@]21c1cccc(OC)c1 (relative stereo) [7β-Ethoxy-1β-(m-methoxyphenyl)-3-methyl-3-azabicyclo[3.2.0]heptan]
Mice [1]
  Tetrabenazine-Induced Depression, mice protected of 10: 3/10
  Tetrabenazine-Induced Depression, Result: Active
Mice [2]
  Tetrabenazine-Induced Ptosis, Result: Active
  Tetrabenazine-Induced Ptosis, mice responding of 10: 9/10
Human platelet membranes
  Platelet Imipramine Binding, Result: Active
  inhibition at 10 µM: 94%

## COc1cccc(C23CCC2CN(C)C3)c1.O.O=C(O)/C=C/C(=O)O (centres unmarked) [1-(m-Methoxyphenyl)-3-methyl-3-azabicyclo[3.2.0]heptane, and fumarate salt monohydrate]
Human platelet membranes
  Platelet Imipramine Binding, Result: Active
  inhibition at 10 µM: 99.8%

## Cc1ccc(C23CCC2CN(C)C3)cc1.O=C(O)/C=C/C(=O)O (centres unmarked) [1-(p-Methylphenyl)-3-methyl-3-azabicyclo[3.2.0]heptane, and fumarate salt]
Mice [1]
  Tetrabenazine-Induced Depression, mice protected of 10: 5/10
  Tetrabenazine-Induced Depression, Result: Active
Mice [2]
  Tetrabenazine-Induced Ptosis, Result: Active
  Tetrabenazine-Induced Ptosis, mice responding of 10: 10/10
